{
  "source": "patent US20250221996A1",
  "about": "“HETEROCYCLIC COMPOUNDS, COMPOSITIONS THEREOF, AND METHODS OF TREATMENT THEREWITH” (BeiGene, Ltd., priority 2022, published 2025)",
  "note": "pIC50: −log10 of the molar value.",
  "data": [
    {"tested_on": "pERK1/2(THR202/TYR204) level in AsPC-1 cells", "assay": "pERK assay (HTRF) in AsPC-1 cell line", "type": "cell-based", "conditions": "Homo sapiens, ASPC1, 2 h, 2 h compound treatment", "how_it_was_run": "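AsPC-1 (KRAS G12D) cells, 30000/well, seeded overnight, then treated 2 h with a 10-point series at 0 to 10 μM final. Lysate pERK1/2 (Thr202/Tyr204) detected by HTRF after overnight antibody incubation at room temperature; IC50 from percent inhibition versus log concentration.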", "values": [
      {"compound": "CC1(COc2nc(N3CC4CCC(C3)N4)c3cc(C(F)(F)F)c(-c4ccc(F)c5sc(N)c(C#N)c45)c(F)c3n2)CN(c2ncco2)C1", "note": "[Example 46, 4-(4-(3,8-diazabicyclo[3.2.1]octan-3-yl)-8-fluoro-2-((3-methyl-1-(oxazol-2-yl)azetidin-3-yl)methoxy)-6-(trifluoromethyl)quinazolin-7-yl)-2-amino-7-fluorobenzo[b]thiophene-3-carbonitrile]", "pIC50": 6.65},
      {"compound": "N#Cc1c(N)sc2c(F)ccc(-c3c(C(F)(F)F)cc4c(N5CC6CCC(C5)N6)nc(OCC56COC(COC7CC7)(C5)C6)nc4c3F)c12", "note": "[Example 47, 4-(4-(3,8-diazabicyclo[3.2.1]octan-3-yl)-2-((1-(cyclopropoxymethyl)-2-oxabicyclo[2.1.1]hexan-4-yl)methoxy)-8-fluoro-6-(trifluoromethyl)quinazolin-7-yl)-2-amino-7-fluorobenzo[b]thiophene-3-carbonitrile]", "pIC50": 6.81},
      {"compound": "N#Cc1c(N)sc2c(F)ccc(-c3c(C(F)(F)F)cc4c(N5CC6CCC(C5)N6)nc(OCC5(C#N)COC5)nc4c3F)c12", "note": "[Example 49, 3-(((7-(2-amino-3-cyano-7-fluorobenzo[b]thiophen-4-yl)-4-(3,8-diazabicyclo[3.2.1]octan-3-yl)-8-fluoro-6-(trifluoromethyl)quinazolin-2-yl)oxy)methyl)oxetane-3-carbonitrile]", "pIC50": 6.99},
      {"compound": "N#Cc1c(N)sc2c(F)ccc(-c3c(C(F)(F)F)cc4c(N5CC6CCC(C5)N6)nc(OCC5(CO)CCOCC5)nc4c3F)c12", "note": "[Example 50, 4-(4-(3,8-diazabicyclo[3.2.1]octan-3-yl)-8-fluoro-2-((4-(hydroxymethyl)tetrahydro-2H-pyran-4-yl)methoxy)-6-(trifluoromethyl)quinazolin-7-yl)-2-amino-7-fluorobenzo[b]thiophene-3-carbonitrile]", "pIC50": 6.71},
      {"compound": "N#CCC1(COc2nc(N3CC4CCC(C3)N4)c3cc(C(F)(F)F)c(-c4ccc(F)c5sc(N)c(C#N)c45)c(F)c3n2)COC1", "note": "[Example 51, 4-(4-(3,8-diazabicyclo[3.2.1]octan-3-yl)-2-((3-(cyanomethyl)oxetan-3-yl)methoxy)-8-fluoro-6-(trifluoromethyl)quinazolin-7-yl)-2-amino-7-fluoro benzo[b]thiophene-3-carbonitrile]", "pIC50": 6.85},
      {"compound": "CCc1cc2c(N3CC4CCC(C3)N4)nc(OCC34COC(C)(C3)C4)nc2c(F)c1-c1ccc(F)c2sc(N)c(C#N)c12", "note": "[Example 52, 4-(4-(3,8-diazabicyclo[3.2.1]octan-3-yl)-6-ethyl-8-fluoro-2-((1-methyl-2-oxabicyclo[2.1.1]hexan-4-yl)methoxy)quinazolin-7-yl)-2-amino-7-fluorobenzo[b]thiophene-3-carbonitrile]", "pIC50": 6.63},
      {"compound": "N#Cc1c(N)sc2c(F)ccc(-c3c(C(F)(F)F)cc4c(N5CC6CCC(C5)N6)nc(OCC5(CF)COC5)nc4c3F)c12", "note": "[Example 53, 4-(4-(3,8-diazabicyclo[3.2.1]octan-3-yl)-8-fluoro-2-((3-(fluoromethyl)oxetan-3-yl)methoxy)-6-(trifluoromethyl)quinazolin-7-yl)-2-amino-7-fluoro benzo[b]thiophene-3-carbonitrile]", "pIC50": 7.48},
      {"compound": "Cn1ccnc1N1CC(C)(COc2nc(N3CC4CCC(C3)N4)c3cc(C(F)(F)F)c(-c4ccc(F)c5sc(N)c(C#N)c45)c(F)c3n2)C1", "note": "[Example 54, 4-(4-(3,8-diazabicyclo[3.2.1]octan-3-yl)-8-fluoro-2-((3-methyl-1-(1-methyl-1H-imidazol-2-yl)azetidin-3-yl)methoxy)-6-(trifluoromethyl)quinazolin-7-yl)-2-amino-7-fluorobenzo[b]thiophene-3-carbonitrile]", "pIC50": 7.49},
      {"compound": "CC1(COc2nc(N3CC4CCC(C3)N4)c3cc(C(F)(F)F)c(-c4ccc(F)c5sc(N)c(C#N)c45)c(F)c3n2)CC2(COC2)C1", "note": "[Example 55, 4-(4-(3,8-diazabicyclo[3.2.1]octan-3-yl)-8-fluoro-2-((6-methyl-2-oxaspiro[3.3]heptan-6-yl)methoxy)-6-(trifluoromethyl)quinazolin-7-yl)-2-amino-7-fluorobenzo[b]thiophene-3-carbonitrile]", "pIC50": 6.48},
      {"compound": "COCC12CC(COc3nc(N4CC5CCC(C4)N5)c4cc(C(F)(F)F)c(-c5ccc(F)c6sc(N)c(C#N)c56)c(F)c4n3)(C1)C(C)(C)O2", "note": "[Example 56, 4-(4-(3,8-diazabicyclo[3.2.1]octan-3-yl)-8-fluoro-2-((1-(methoxymethyl)-3,3-dimethyl-2-oxabicyclo[2.1.1]hexan-4-yl)methoxy)-6-(trifluoromethyl)quinazolin-7-yl)-2-amino-7-fluorobenzo[b]thiophene-3-carbonitrile]", "pIC50": 6.96},
      {"compound": "N#Cc1c(N)sc2c(F)ccc(-c3c(C(F)(F)F)cc4c(N5CC6CCC(C5)N6)nc(OCC5(CO)COC5)nc4c3F)c12", "note": "[Example 57, 4-(4-(3,8-diazabicyclo[3.2.1]octan-3-yl)-8-fluoro-2-((3-(hydroxymethyl)oxetan-3-yl)methoxy)-6-(trifluoromethyl)quinazolin-7-yl)-2-amino-7-fluorobenzo[b]thiophene-3-carbonitrile]", "pIC50": 6.53}
    ]}
  ]
}
